Data from patent US7345088B2, “Pharmaceutical composition for use for the treatment of malignancies comprising in combination a bisphosphonates, a cox-2 inhibitor and a taxol” (Penn State Research Foundation, priority 2001, dated 2008).

Experiments:
Assay type in all cases: cell-based
[1] = tested on: control vector transfected human breast cancer cell line (MCF/neo); assay: MTT tetrazolium dye assay, cell number after 3-day incubation, MCF/neo; settings: MCF/neo cells
Protocol: (§1) Methods: The effect of combining the COX-2 inhibitor (SC 236) and zoledronic acid compared to either agent alone was tested in a HER-2/neu transfected human breast cancer cell line (MCF/18) and the control vector transfected line (MCF/neo). Cell number was determined after a 3-day incubation using the MTT tetrazolium dye assay.
as §1, with “(SC236) with” for “(SC 236) and”, “and/or taxotere” for “compared to either agent alone”

[2] = tested on: DU-145 human prostate carcinoma cell line; assay: MTT tetrazolium dye assay, cell number after 3 day treatment, DU-145; settings: DU-145 cells
Protocol: Methods: The effect of combining the COX-2 inhibitor (SC236) and zoledronic acid compared to either agent alone was tested in the DU-145 human prostate carcinoma cell line. Cell number was determined after a 3 day treatment using the MTT tetrazolium dye assay.

[3] = tested on: HER-2/neu transfected human breast cancer cell line (MCF/18); assay: MTT tetrazolium dye assay, cell number after 3-day incubation, MCF/18; settings: MCF/18 cells
Protocol: as §1
as §1, with “(SC236) with” for “(SC 236) and”, “and/or taxotere” for “compared to either agent alone”

[4] = single agent 1-10 μM, 3-day incubation (Example 19)
[5] = single agent, concentration not given, 3-day incubation (Example 20)

Compound | growth inhibition [1, 4] | growth inhibition ([2]; 5 μM) | growth inhibition ([2]; 1-25 μM) | growth inhibition [3, 4] | growth inhibition [1, 5] | growth inhibition ([2]; 1-10 μM) | inhibition at 3 µM ([2]; Homo sapiens, 72 h, 3 μM, read-out: growth inhibition) | growth inhibition [3, 5]
NS(=O)(=O)c1ccc(-n2nc(C(F)(F)F)cc2-c2ccc(Cl)cc2)cc1 [SC236] | 18-53% | 40% | 0-77% | 15-41% | – | – | – | –
O=P(O)(O)C(O)(Cn1ccnc1)P(=O)(O)O [zoledronic acid, 2-(imidazol-1yl)-1-hydroxyethane-1,1-diphosphonic acid] | 8-67% | – | – | 9-53% | 18%-67% | 8-70% | 23% | 9%-53%
